Measurements as given in patent US20040126418A1, “Transdermal administration of MENT” (The Population Council, Inc., priority 1997, published 2004).

Columns and labels:
[1] = In vitro permeation (flux) across rat skin, modified Franz diffusion cell; assay type: in vitro ADME, Sprague-Dawley rats
From the text: The flux of a specific formulation can be determined using a modified Franz diffusion cell as discussed herein. First, skin from female Sprague-Dawley rats (200-250 g body weight) can be obtained. The rats are anesthetized, the abdominal skin shaved and then excised. Excess fat and connective tissues are removed. The skin (1.77 cm^2) is sandwiched between the two chambers of a modified Franz diffusion cell, with the surface of the skin facing the upper (donor) chamber of the cell. A measured amount of the androgen containing formulation is applied to the surface of the skin, so that the skin is completely covered. The lower (recipient) chamber is filled with sterile saline, which completely bathes the lower surface of the rat skin. The contents of the recipient chamber are constantly stirred with a magnetic stirrer. Aliquots of the saline in the recipient chamber is removed at predetermined intervals and analyzed by HPLC. The saline remains in constant contact with the skin at all times. The Franz cell is maintained at 37° C. for the duration of each test.
An in vitro modified Franz cell system as described in Example 2 was used to study the permeability of testosterone and MENT from various transdermal dosage forms through rat skin. Various topical cream, gel and patch formulations were tested. The concentration of testosterone and MENT in all of the gels and creams described herein was 2 mg per gram of gel or cream. The following formulations were tested: […]
The gel (nearly identical to formulation T from Example 1) was produced by taking all of the aqueous components and mixing them under medium agitation in one vessel and all the organic, non-aqueous materials and mixing them in a separate vessel. The organic mixture and aqueous mixture were then mixed together using medium agitation provided by a paddle mixer. Of course, a lightning mixer or magnetic stirrer could also be used. The viscosity profile of the gel produced is illustrated in FIG. 20. Steroid permeation (in vitro) across Rat Skin for each of these gel formulations were tested using a two chambers of a modified Franz diffusion cell as previously described. Skin from female Sprague-Dawley rats (200-250 g body weight) were used in these studies. The rats were anesthetized, the abdominal skin was shaved and excised. Excess fat and connective tissues were removed. The skin (1.77 cm^2) was sandwiched between the two chambers of a modified Franz diffusion cell, with the surface of the skin facing the upper (donor) chamber of the cell. Approximately 0.5 gm of gel (1 mg steroid) was applied to the surface of the skin, so that the skin was completely covered with the gel. The lower (recipient) chamber was filled with 11.4 ml of sterile saline, which completely bathed the lower surface of the rat skin. The contents of the recipient chamber was constantly stirred with a magnetic stirrer during the experiment. Aliquots of 200 μL of the saline in the recipient chamber were removed at intervals of 1 h for 4 h; and analyzed by HPLC for either MENT on T. The saline remained in constant contact with the skin at all times. The Franz cell was maintained at 37° C. for the duration of the test.

[2] = Bioavailability of transdermal MENT gel formulations in rabbits (serum MENT by radioimmunoassay); assay type: in vivo, New Zealand white rabbits
Experimental: The bioavailability of three transdermal MENT gel formulations (2 mg MENT/g gel) (formulations O, F and T) were studied in rabbits. Three New Zealand white rabbits weighing 3.5-4.5 kg were used in each group. To each animal, 0.2 g gel (0.4 mg MENT) or 0.4 g gel (0.8 mg MENT) was applied to 5×5 cm or 10×10 cm area of shaved skin for three consecutive days. On days 1 and 3, blood samples were collected at 0, 1, 2, 4 and 8 hours after application of the gel. Serum MENT levels were determined by radioimmunoassay.

SMILES: C[C@@H]1CC2=CC(=O)CC[C@@H]2[C@H]2CC[C@]3(C)[C@@H](O)CC[C@H]3[C@@H]21 [MENT, 7α-methyl-19-nortestosterone]
- Permeation (concentrations and flux rates) through rat skin compared with testosterone ([1]; all other formulations (1 patch, 2 creams and 7 gels), FIGS. 3 to 7 and 9 to 13): considerably higher concentrations and flux rates than that of testosterone
- Flux across rat skin compared with testosterone ([1]; certain dosage forms (FIGS. 3, 4, 6, 7, 10, 11 and 12)): more than double that of testosterone
- Rate of skin penetration compared with T ([1]; gel of Example 2, 0.5 gm gel (1 mg steroid), 1-4 h, FIG. 1): faster rate than T
- Steroid flux compared with T ([1]; gel of Example 2, each time period studied, FIG. 2): greater at each time period studied
- Flux compared with MENT Ac ([1]; general statement, no data shown): generally greater than that of MENT Ac
- Flux compared with testosterone ([1]; summary statement, depending upon the particular transdermal formulation): as much as twice that of testosterone or more
- Dose dependence of bioavailability ([2]; 0.4 vs 0.8 mg MENT, Table 1): dose dependent
- Permeation through rabbit skin / serum levels ([2]; gel formulations O, F and T, FIGS. 14 to 19): permeated through rabbit skin and give measurable serum levels
